Assay results reported in ChEMBL document CHEMBL1132929 (J Med Chem, 2000).
Peptide text beside a SMILES is read from it.

Target: Substance-P receptor (Rana catesbeiana)
Experiment: SP-induced [Ca2+] mobilization in CHO cells expressing bullfrog Tachykinin receptor 1

EC50	SMILES
14 nM	CC[C@H](C)[C@H](NC(=O)[C@H](Cc1ccccc1)NC(=O)[C@H](CO)NC(=O)[C@H](C)NC(=O)[C@@H]1CCCN1C(=O)[C@H](CC(N)=O)NC(=O)[C@@H](N)Cc1cnc[nH]1)C(=O)NCC(=O)N[C@@H](CC(C)C)C(=O)N[C@@H](CCSC)C(N)=O (H-HNPASFIGLM-NH2)
0.6 nM	CSCC[C@H](NC(=O)[C@H](CC(C)C)NC(=O)CNC(=O)[C@H](Cc1ccc(O)cc1)NC(=O)[C@H](Cc1ccccc1)NC(=O)[C@H](CCCNC(=N)N)NC(=O)[C@H](CC(=O)O)NC(=O)[C@@H]1CCCN1C(=O)[C@H](CO)NC(=O)[C@@H]1CCCN1C(=O)[C@@H](N)CCCCN)C(N)=O (H-KPSPDRFYGLM-NH2)
14 nM	CSCC[C@H](NC(=O)[C@H](CC(C)C)NC(=O)CNC(=O)[C@H](Cc1ccc(O)cc1)NC(=O)[C@H](Cc1ccccc1)NC(=O)[C@H](CO)NC(=O)[C@H](CC(=O)O)NC(=O)[C@H](CO)NC(=O)[C@H](CCCCN)NC(=O)[C@@H](N)Cc1ccc(O)cc1)C(N)=O (H-YKSDSFYGLM-NH2)
